The assay has as its system fibroblasts. Kind of assay: BioMAP proliferation readout, fibroblasts. Format: cell-based, human. The note with it: 100 μM. An excerpt:
The X-axis lists the quantitative protein-based biomarker readouts measured in each system. The Y-axis represents a log-transformed ratio of the biomarker readouts for the drug-treated sample (n=1) over vehicle controls (n≥6). The grey region around the Y-axis represents the 95% significance envelope generated from historical vehicle controls. Biomarker activities are annotated when two or more consecutive concentrations change in the same direction relative to vehicle controls, are outside of the significance envelope, and have at least one concentration with an effect size >20% (|log 10 ratio|>0.1). Biomarker key activities are described as modulated if these activities increase in some systems, but decrease in others. […] As summarized in Table 2 below, the compound was active with 35 annotated readouts. […]
Human primary cells in BioMAP® systems are used at early passage (passage 4 or earlier) to minimize adaptation to cell culture conditions and preserve physiological signaling responses. […] Test agents prepared in either DMSO (small molecules; final concentration ≤0.1%) or PBS (biologics) are added at the indicated concentrations 1-hr before stimulation, and remain in culture for 24-hrs or as otherwise indicated (48-hrs, MyoF system; 72-hrs, BT system (soluble readouts); 168-hrs, BT system (secreted IgG)). […]

For the compound `C1=NC(c2cncc(C3CCC=N3)c2)CC1` (stereo not shown) [3,5-bis(3,4-dihydro-2H-pyrrol-2-yl)pyridine], the “antiproliferative effect on fibroblasts” value is listed as “antiproliferative”.

Source of the values: patent publication US12358892B2, “Metalloenzyme inhibitors for treating cancers, Alzheimer's disease, hemochromatosis, and other disorders” (Miralogx LLC, priority 2020, dated 2025).
